This passage reports Km results from publication PMC7002416, “Probiotic properties of a phytase producing Pediococcus acidilactici strain SMVDUDB2 isolated from traditional fermented cheese product, Kalarei” (Scientific Reports, 2020).

One may read the Km as the concentration of substrate that gives half-maximal velocity.

For the experiment, the system named is phytase (extracellular phytase from P. acidilactici SMVDUDB2). As to conditions: 0.1-1.8 mM sodium phytate, 0.2 M sodium acetate pH 5.5.

Regarding `O=P(O)(O)O[C@H]1[C@H](OP(=O)(O)O)[C@@H](OP(=O)(O)O)[C@H](OP(=O)(O)O)[C@@H](OP(=O)(O)O)[C@H]1OP(=O)(O)O` [sodium phytate], the Km is 385 µM.
